{"source": "patent US5916924A", "about": "“Remedies for liver diseases” (Meiji Milk Products Co., Ltd., priority 1997, dated 1999)", "key": {"mice (ICR, female)": {"system": "mice (ICR, female)", "experiment": "Acute Toxicity Test", "type": "in vivo", "settings": "intraperitoneal", "method": "The pH was adjusted to 7.0 by use of 5N NaOH. Solutions having lower concentrations were prepared by dilution with physiological saline. Each solution (10 μl) was intraperitoneally injected to mice (ICR, female, 6-weeks old, 29 g), and the survival ratio was obtained."}, "[1]": {"system": "rat hepatocyte system in primary culture"}, "[2]": {"system": "liver disorder induced by carbon tetrachloride", "experiment": "GOT and GPT tests in mice with liver disorder induced by carbon tetrachloride", "type": "in vivo, ddY mice", "method": "Carbon tetrachloride (5 ml, Wako Pure Chemicals) was put in a glass vial, and Panasate 800 (45 ml, Nippon Yushi Chemicals Co, Ltd.) was added to prepare a 10% (v/v) solution.\nSubsequently,the total amount was made to 50 ml. An aliquot of 2 ml was diluted in 38 ml of physiological saline.\nOne group consisted of 10 mice. For 24 hours prior to the administration of tetrachloride, each mouse was fasted by being fed water only. 10% carbon tetrachloride/Panasate solution was intraperitoneally administered to each mice at a dose of 1 ml/kg.\nBlood was collected from the abdominal aorta by use of 1-ml disposable syringes (Terumo). The blood, dispensed into 1.5 ml Eppendorf tubes, was subjected to centrifugal separation at 5,000 rpm for 10 minutes to thereby obtain serum. The activity of transaminase (GOT, GPT) in the serum thus obtained was measured. The measurement was performed by use of a Cobas Mira System (Baxter)."}, "[3]": {"settings": "intraperitoneal, 2.8 mg/kg, 2 times"}}, "note": "Structures can show the parent of a compound that is named as a salt. Where two headings read alike, the source gives them in different places.", "data": [{"compound": "NCCO", "note": "[EA-HC1, monoethanolamine-HCl]", "values": [{"measurement": "Survival", "setting": "mice (ICR, female); 0.5 g/kg (as EA), 1 day after admin.", "result": "4/4"}, {"measurement": "Survival", "setting": "mice (ICR, female); 0.5 g/kg (as EA), 6 days after admin.", "result": "4/4"}, {"measurement": "Survival", "setting": "mice (ICR, female); 0.5 g/kg (as EA), day of administration", "result": "4/4"}, {"measurement": "Survival", "setting": "mice (ICR, female); 1.25 g/kg (as EA), 1 day after admin.", "result": "3/3"}, {"measurement": "Survival", "setting": "mice (ICR, female); 1.25 g/kg (as EA), 6 days after admin.", "result": "3/3"}, {"measurement": "Survival", "setting": "mice (ICR, female); 1.25 g/kg (as EA), day of administration", "result": "3/3"}, {"measurement": "time to death after administration", "setting": "mice (ICR, female); 2.5 g/kg", "result": "≤ 30", "unit": "min"}, {"measurement": "Survival", "setting": "mice (ICR, female); 2.5 g/kg (as EA), day of administration", "result": "0/4"}, {"measurement": "time to death after administration", "setting": "mice (ICR, female); 5.0 g/kg", "result": "≤ 30", "unit": "min"}, {"measurement": "Survival", "setting": "mice (ICR, female); 5.0 g/kg (as EA), day of administration", "result": "0/4"}, {"measurement": "Survival", "setting": "mice (ICR, female); doses equal to or less than 1.25 g/kg, six days", "result": "alive when six days had passed"}]}, {"compound": "NCCO", "note": "[ethanolamine, monoethanolamine]", "values": [{"measurement": "3H-TdR uptake activity", "setting": "[1]; in the presence of EGF", "result": "synergistic growth-stimulating effects"}, {"measurement": "3H-TdR uptake activity", "setting": "[1]; in the presence of the high molecular weight factor extract", "result": "synergistic growth-stimulating effects"}, {"measurement": "area of necrosis in histopathological profile of the liver", "setting": "[2]; 2.8 mg/kg i.p. and 16 mg/kg p.o.", "result": "tendency that the area of necrosis was reduced"}, {"measurement": "serum GOT level", "setting": "[2]; [3]", "result": "significantly decreased"}, {"measurement": "serum GPT level", "setting": "[2]; [3]", "result": "significantly decreased"}, {"measurement": "serum GOT level", "setting": "[2]; peroral, 16 mg/kg, once", "result": "significantly decreased"}, {"measurement": "serum GPT level", "setting": "[2]; peroral, 16 mg/kg, once", "result": "significantly decreased"}]}]}
